These results are taken from publication PMC9863409, “Combining the In Silico and In Vitro Assays to Identify Strobilanthes cusia Kuntze Bioactives against Penicillin-Resistant Streptococcus pneumoniae” (Pharmaceuticals, 2023).

Molecules are shown by their SMILES. pKd: −log10 of the molar value. Converted amounts (≈) assume the structure as drawn.

The target of the first assay is T1, SP_2146 (alpha-fucosidase) (Streptococcus pneumoniae, UniProt A0A0H2US78).
T1 construct: recombinant from PRSP F3983 genomic DNA, pET-28a (+) with N-terminal 6 × His tag
T1 sequence (A0A0H2US78 entry or part of it): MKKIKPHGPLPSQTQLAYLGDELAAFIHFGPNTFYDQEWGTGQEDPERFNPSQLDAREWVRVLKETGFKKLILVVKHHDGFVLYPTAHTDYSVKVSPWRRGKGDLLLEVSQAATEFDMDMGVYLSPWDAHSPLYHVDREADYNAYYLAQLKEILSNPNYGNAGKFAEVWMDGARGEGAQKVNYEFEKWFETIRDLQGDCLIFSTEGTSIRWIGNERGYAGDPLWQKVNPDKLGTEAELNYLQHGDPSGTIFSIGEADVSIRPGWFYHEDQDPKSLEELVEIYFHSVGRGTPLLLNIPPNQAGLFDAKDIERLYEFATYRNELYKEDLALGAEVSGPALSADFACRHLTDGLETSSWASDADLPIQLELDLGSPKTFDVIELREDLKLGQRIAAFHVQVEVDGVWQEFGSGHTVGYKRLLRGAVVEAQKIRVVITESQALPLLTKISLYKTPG
Nature of the assay: SPR (Biacore 8K, CM5 chip, immobilized protein, steady-state affinity). The class given is binding. In general terms: Surface plasmon resonance follows binding to a sensor surface in real time, without labels.
In the case of `O=C1c2ccccc2-n2c1nc1ccccc1c2=O` [Tryptanthrin, Indolo(2,1-b)quinazoline-6,12-dione], the pKd (as a rule, the negative decadic logarithm of the Kd, by convention in mol/L) was 5.05.

In the next assay the target is T2, SP_2141 (beta-Hexosaminidase) (Streptococcus pneumoniae, UniProt A0A0H2US73).
T2 construct: recombinant from PRSP F3983 genomic DNA, pET-28a (+) with N-terminal 6 × His tag
T2 sequence (A0A0H2US73 entry or part of it): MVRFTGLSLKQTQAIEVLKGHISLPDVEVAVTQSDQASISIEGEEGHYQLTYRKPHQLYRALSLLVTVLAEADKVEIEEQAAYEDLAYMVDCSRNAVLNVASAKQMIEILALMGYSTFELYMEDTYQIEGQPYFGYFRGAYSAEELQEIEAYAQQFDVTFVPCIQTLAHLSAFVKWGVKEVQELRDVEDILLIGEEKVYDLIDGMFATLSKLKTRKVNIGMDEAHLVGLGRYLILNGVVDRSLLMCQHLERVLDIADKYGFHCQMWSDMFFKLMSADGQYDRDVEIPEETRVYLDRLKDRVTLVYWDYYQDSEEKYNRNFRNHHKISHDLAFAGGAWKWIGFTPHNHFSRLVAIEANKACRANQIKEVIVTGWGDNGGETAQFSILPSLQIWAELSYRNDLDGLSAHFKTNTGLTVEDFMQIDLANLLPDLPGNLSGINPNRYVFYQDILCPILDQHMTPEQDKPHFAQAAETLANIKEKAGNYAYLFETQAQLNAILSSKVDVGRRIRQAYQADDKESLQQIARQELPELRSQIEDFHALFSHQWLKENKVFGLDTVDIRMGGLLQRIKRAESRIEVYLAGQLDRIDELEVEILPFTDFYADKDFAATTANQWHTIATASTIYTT
Described as above. The assay is classed as binding.
In turn, `O=C1c2ccccc2-n2c1nc1ccccc1c2=O` [Tryptanthrin, Indolo(2,1-b)quinazoline-6,12-dione] gave a pKd of 5.19.

In a further assay the test system is T3, Streptococcus pneumoniae PRSP F3983.
T3 construct: F3983 (penicillin-resistant)
The assay can be described thus: microbe, parasite or virus in culture. Set-up: MIC test of isolated compounds on penicillin-resistant Streptococcus pneumoniae F3983. An excerpt:
2.4.2. MIC Tests for the Isolated 23 Chemical Compounds on the PRSP F3983 The following supporting information can be downloaded at: https://www.mdpi.com/article/10.3390/ph16010105/s1; Table S1: Proteome_data sheet; Table S2: UPLC-UV-ESI-Q-TOF/MS analysis of S. cusia leaves; Table S3: NMR of 23 isolated compounds and their MICs against PRSP [69, 70, 71, 72, 73, 74, 75, 76, 77, 78, 79, 80, 81, 82, 83, 84, 85, 86, 87, 88, 89, 90, 91]; Table S4: Reverse-docking_active-pockets; Table S5: Reverse-docking_results_Tryptanthrin; Table S6: LMW-Kinetics-affinity_Tryptanthrin; Table S7: Primers and sequences of bgaA, StrH, SP_2141 and SP_2146 of F3983; Table S8: A scheme of Preparation of Isolated Compounds from S. cusia leaves
`O=C1Cc2ccccc2N1` [compound 4, 1,3-dihydro-2H-indol-2-one] came in with an MIC of 400 µg/mL (≈ 3000 µM).

On to `COC(=O)c1ccccc1NC(=O)c1c[nH]c2ccccc12` [compound 8, cephalandole B], for which the MIC is more than 800 µg/mL.

Regarding `O=C(O)c1ccc(C(=O)O)[nH]1` [compound 5, 1H-pyrrole-2,5-diacarboxylic acid], the MIC came to 200 µg/mL (≈ 1290 µM).

`CC(=O)C=CC1=C(C)CC(O)CC1(C)C` (single isomer, unassigned; (-)) [compound 9, (-)-3-hydroxy-β-ionone]: the MIC is more than 800 µg/mL.

`O=c1c2ccccc2ncn1-c1ccccc1O` [compound 13, 3-(2'-hydroxyphenyl)-4(3H)-quinazolinone] registered an MIC of 400 µg/mL (≈ 1680 µM).

Consider `COc1c(O)cc2oc(-c3ccc(O)cc3)cc(=O)c2c1O` [compound 15, hispidulin], for which the MIC turned out to be 200 µg/mL (≈ 666 µM).

`CC(=O)C=CC12OC1(C)CC(O)CC2(C)C` (stereo not drawn) [compound 11, 3β-hydroxy-5α,6α-epoxy-7-megastigmen-9-one] showed an MIC of 400 µg/mL (≈ 1780 µM).

In turn, `O=c1c2ccccc2nc2n1CCC2` [compound 20, deoxyvasicinone] displayed an MIC of more than 800 µg/mL.

In the case of `O=Cc1c[nH]c2ccccc12` [compound 14, 1H-indole-3-carboxadehyde], the MIC is more than 800 µg/mL.

Turning to `CC(C)COC(=O)c1ccccc1C(=O)OCC(C)C` [compound 7, phthalic acid isodibutyl ester], the MIC is more than 800 µg/mL.

In the case of `CC(=O)/C=C/[C@H]1C(C)=C[C@H](O)CC1(C)C` [compound 3, (3R,6R,7E)-3-hydroxy-4,7-megastigmadien-9-one], the MIC was determined as 400 µg/mL (≈ 1920 µM).

Compound `O=C1Nc2ccccc2OC1O` (stereo not shown) [compound 16, 2-hydroxy-(2H)-1,4-benzoxazin-3(4H)-one] displayed an MIC of more than 800 µg/mL.

Consider `NC(=O)c1cccnc1` [compound 21, Nicotinamide], for which the MIC is more than 800 µg/mL.

In turn, `COc1cc(C(=O)O)ccc1O` [compound 10, 4-hydroxy-5-methoxy-benzoic acid] gave an MIC of more than 800 µg/mL.

`CC1(C)C[C@H](O)C[C@@]2(C)OC(=O)C=C12` [compound 12, Calendin] had an MIC of more than 800 µg/mL.

Take `CC(=O)c1ccc(O)cc1` [compound 19, p-hydroxyacetophenone]: the MIC turned out to be 200 µg/mL (≈ 1470 µM).

The compound `CC(O)C(=O)Nc1ccccc1O` (stereo not shown) [compound 17, 2-hydroxy-N-(2-hydroxyphenyl)propionamide] yielded an MIC of more than 800 µg/mL.

In turn, `CCCCC(CC)COC(=O)c1ccccc1C(=O)OCC(CC)CCCC` (stereo not shown) [compound 6, bis(2-ethylhexyl) benzene-1,2-dicarboxylate] gave an MIC of more than 800 µg/mL.

Consider `CCCCCCCC/C=C\CCCCCCCC(N)=O` [compound 23, 9(Z)-octadece-nameid], for which the MIC is more than 800 µg/mL.

The target of a further assay is StrH (exo-beta-D-N-acetylglucosaminidase) (Streptococcus pneumoniae, UniProt P49610). The assay can be described thus: SPR (Biacore 8K, CM5 chip, immobilized protein, steady-state affinity). The assay is classed as binding.
StrH (exo-beta-D-N-acetylglucosaminidase), sequence (P49610 626-1064): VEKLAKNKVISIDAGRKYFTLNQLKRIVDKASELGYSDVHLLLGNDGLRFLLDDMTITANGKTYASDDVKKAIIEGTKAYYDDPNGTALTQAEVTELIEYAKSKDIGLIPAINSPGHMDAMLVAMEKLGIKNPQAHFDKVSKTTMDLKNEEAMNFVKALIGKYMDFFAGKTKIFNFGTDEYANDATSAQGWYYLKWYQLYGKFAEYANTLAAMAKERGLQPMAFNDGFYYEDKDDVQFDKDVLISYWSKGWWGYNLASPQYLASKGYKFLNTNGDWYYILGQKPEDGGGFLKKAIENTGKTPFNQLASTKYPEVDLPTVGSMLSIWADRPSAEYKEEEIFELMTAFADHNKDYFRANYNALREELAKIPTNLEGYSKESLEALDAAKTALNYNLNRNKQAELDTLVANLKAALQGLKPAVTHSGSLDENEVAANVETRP
Compound `O=C1c2ccccc2-n2c1nc1ccccc1c2=O` [Tryptanthrin, Indolo(2,1-b)quinazoline-6,12-dione] had a pKd of 5.15.
